Experimental data: ChEMBL document CHEMBL1201862, “PubChem BioAssay data set” (2004)
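How tested: cells in 96-well plates exposed to compound for 48 hours at five concentrations. The concentration for 50% growth inhibition is given as GI50.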 Active and inactive are the calls of the source. Rule as the data show it: active = GI50 up to about 1.1 µM and inactive = higher.

Key:
Assay in all cases: inhibition of tumour cell growth, NCI panel, 48 h
Hs-578T = system: Hs-578T
MOLT-4 = system: MOLT-4
LOX IMVI = system: LOX IMVI
HOP-92 = system: HOP-92
NCI-H460 = system: NCI-H460
NCI-H226 = system: NCI-H226
SK-MEL-28 = system: SK-MEL-28
M14 = system: M14
RPMI-8226 = system: RPMI-8226
MDA-MB-435 = system: MDA-MB-435
NCI/ADR-RES = system: NCI/ADR-RES
SNB-19 = system: SNB-19
SF-295 = system: SF-295
SNB-75 = system: SNB-75
Malme-3M = system: Malme-3M
HT-29 = system: HT-29
MCF7 = system: MCF7
EKVX = system: EKVX
T47D = system: T47D
COLO 205 = system: COLO 205

Compound	GI50 (Hs-578T)	GI50 (MOLT-4)	GI50 (LOX IMVI)	GI50 (HOP-92)	GI50 (NCI-H460)	GI50 (NCI-H226)	GI50 (SK-MEL-28)	GI50 (M14)	GI50 (RPMI-8226)	GI50 (MDA-MB-435)	GI50 (NCI/ADR-RES)	GI50 (SNB-19)	GI50 (SF-295)	GI50 (SNB-75)	GI50 (Malme-3M)	GI50 (HT-29)	GI50 (MCF7)	GI50 (EKVX)	GI50 (T47D)	GI50 (COLO 205)
Cc1nc2c(O)cccc2c(=O)[nH]1	573 µM (inactive)	339 µM (inactive)	485 µM (inactive)	845 µM (inactive)	263 µM (inactive)	203 µM (inactive)	> 1000 µM (inactive)	611 µM (inactive)	135 µM (inactive)	883 µM (inactive)	548 µM (inactive)	670 µM (inactive)	351 µM (inactive)	233 µM (inactive)	597 µM (inactive)	345 µM (inactive)	621 µM (inactive)	456 µM (inactive)		
COc1ccc(Nc2nc3c([nH]2)c(=O)n(C)c(=O)n3C)cc1		> 10 µM (inactive)	> 10 µM (inactive)	> 10 µM (inactive)			> 10 µM (inactive)	> 10 µM (inactive)	> 10 µM (inactive)	> 10 µM (inactive)			> 10 µM (inactive)	> 10 µM (inactive)	> 10 µM (inactive)	> 10 µM (inactive)	> 10 µM (inactive)	> 10 µM (inactive)	> 10 µM (inactive)	> 10 µM (inactive)
O=C(CCCC(=O)N1CC(CCl)c2ccc([N+](=O)[O-])cc21)N1CC(CCl)c2ccc([N+](=O)[O-])cc21 (centres undefined)		> 100 µM (inactive)	> 100 µM (inactive)	> 100 µM (inactive)	38.4 µM (inactive)	> 100 µM (inactive)	> 100 µM (inactive)	> 100 µM (inactive)	43.7 µM (inactive)	> 100 µM (inactive)		> 100 µM (inactive)	> 100 µM (inactive)			> 100 µM (inactive)	> 100 µM (inactive)		> 100 µM (inactive)	> 100 µM (inactive)
CN(C)c1ccc(-c2c(C#N)c(-c3ccccc3)n(NS(=O)(=O)c3ccccc3)c(=O)c2C#N)cc1	23.1 µM (inactive)	20.7 µM (inactive)	37.4 µM (inactive)	28.9 µM (inactive)	54.3 µM (inactive)	> 100 µM (inactive)	70.8 µM (inactive)	47.4 µM (inactive)	21.3 µM (inactive)	71.4 µM (inactive)	57.3 µM (inactive)	24.8 µM (inactive)	41.7 µM (inactive)	48.5 µM (inactive)	40.1 µM (inactive)	76.7 µM (inactive)	40.7 µM (inactive)	67.5 µM (inactive)		> 100 µM (inactive)
COc1ccc2nc3n(c2c1)C(c1c(Cl)cccc1Cl)SC3 (centres undefined)		> 100 µM (inactive)	> 100 µM (inactive)	> 100 µM (inactive)	> 100 µM (inactive)	> 100 µM (inactive)	> 100 µM (inactive)	> 100 µM (inactive)	> 100 µM (inactive)	> 100 µM (inactive)	> 100 µM (inactive)	> 100 µM (inactive)	> 100 µM (inactive)	> 100 µM (inactive)			> 100 µM (inactive)	> 100 µM (inactive)	> 100 µM (inactive)	> 100 µM (inactive)
CO/C(=N\N=C\c1cc(OC)ccc1OC)c1ccncc1		> 10 µM (inactive)	> 10 µM (inactive)		> 10 µM (inactive)	> 10 µM (inactive)	> 10 µM (inactive)		> 10 µM (inactive)		> 10 µM (inactive)	> 10 µM (inactive)	> 10 µM (inactive)	3.68 µM (inactive)	> 10 µM (inactive)		> 10 µM (inactive)		> 10 µM (inactive)	> 10 µM (inactive)
CC1(C(=O)O)CCCC1C(=O)O (centres undefined)	> 100 µM (inactive)	> 100 µM (inactive)	> 100 µM (inactive)	> 100 µM (inactive)	> 100 µM (inactive)	> 100 µM (inactive)	> 100 µM (inactive)	> 100 µM (inactive)	4.51 µM (inactive)		> 100 µM (inactive)	> 100 µM (inactive)	> 100 µM (inactive)		> 100 µM (inactive)	> 100 µM (inactive)		> 100 µM (inactive)	> 100 µM (inactive)	
COC(=O)CSc1[nH]c2nc(C)nc(Nc3ccccc3)c2c1C#N		> 10 µM (inactive)	> 10 µM (inactive)	9.42 µM (inactive)			> 10 µM (inactive)	> 10 µM (inactive)	> 10 µM (inactive)	> 10 µM (inactive)			> 10 µM (inactive)	> 10 µM (inactive)	> 10 µM (inactive)	> 10 µM (inactive)	> 10 µM (inactive)	> 10 µM (inactive)	> 10 µM (inactive)	> 10 µM (inactive)
CC1(C(O)c2ccccc2)CN(C(C)(C)C)C(=O)/C1=C\Sc1ccccc1 (centres undefined)		19.2 µM (inactive)	14.1 µM (inactive)	1.88 µM (inactive)			> 100 µM (inactive)	51.3 µM (inactive)	9.95 µM (inactive)	30.1 µM (inactive)	35.6 µM (inactive)	> 100 µM (inactive)	28.3 µM (inactive)			21.1 µM (inactive)	33.7 µM (inactive)	83 µM (inactive)	13.3 µM (inactive)	20.9 µM (inactive)
O=c1[nH]/c(=C/c2cccs2)c(=O)[nH]/c1=C/c1ccc(OCc2ccccc2)cn1	0.0276 µM (active)	0.033 µM (active)	57.1 µM (inactive)		0.0351 µM (active)	0.312 µM (active)	3.3 µM (inactive)	0.0309 µM (active)	0.0618 µM (active)	< 0.01 µM (active)	0.0266 µM (active)	0.0661 µM (active)	0.0206 µM (active)	0.027 µM (active)	0.0197 µM (active)	0.124 µM (active)	0.0422 µM (active)	1 µM (active)		0.323 µM (active)
CN1CCCCCC(=N\O)/C(=N/O)CCCCC1	> 100 µM (inactive)	> 100 µM (inactive)	> 100 µM (inactive)	> 100 µM (inactive)	> 100 µM (inactive)	> 100 µM (inactive)	> 100 µM (inactive)	> 100 µM (inactive)		> 100 µM (inactive)	> 100 µM (inactive)	> 100 µM (inactive)	> 100 µM (inactive)	> 100 µM (inactive)	> 100 µM (inactive)	> 100 µM (inactive)	> 100 µM (inactive)	> 100 µM (inactive)		
COc1cccc2c1C(=O)c1c(O)c3c(c(O)c1C2=O)CC(O)(C(O)CO)CC3OC1CC(N2CCOCC2)C(O)C(C)O1 (centres undefined)	0.0146 µM (active)			0.065 µM (active)	< 0.001 µM (active)	0.0118 µM (active)	0.00406 µM (active)	0.00295 µM (active)	0.00378 µM (active)	0.00883 µM (active)	0.0162 µM (active)	0.00404 µM (active)	0.00206 µM (active)	0.00388 µM (active)	0.00251 µM (active)	0.00308 µM (active)	0.0223 µM (active)	0.00386 µM (active)		0.00177 µM (active)
O=c1c2cc([N+](=O)[O-])ccc2n2n1CCCCC2	> 100 µM (inactive)	> 100 µM (inactive)	> 100 µM (inactive)	> 100 µM (inactive)	> 100 µM (inactive)	> 100 µM (inactive)	> 100 µM (inactive)	> 100 µM (inactive)	> 100 µM (inactive)	> 100 µM (inactive)	> 100 µM (inactive)	> 100 µM (inactive)	> 100 µM (inactive)	> 100 µM (inactive)	> 100 µM (inactive)	> 100 µM (inactive)		> 100 µM (inactive)		> 100 µM (inactive)
NS(=O)(=O)c1ccc(CNc2nc(-c3cccs3)nc3ccc(I)cc23)cc1		21.9 µM (inactive)	14.8 µM (inactive)	16 µM (inactive)	15 µM (inactive)	17.9 µM (inactive)	21.3 µM (inactive)	15.1 µM (inactive)	18.6 µM (inactive)	14.6 µM (inactive)	26.2 µM (inactive)	17.4 µM (inactive)	17.9 µM (inactive)	21.6 µM (inactive)	14.7 µM (inactive)	19.4 µM (inactive)	0.573 µM (active)	3.85 µM (inactive)	0.222 µM (active)	16.1 µM (inactive)
COc1cc2c(cc1OCCCN1CCOCC1)N=C[C@@H]1CCCN1C2=O	16.9 µM (inactive)	4.91 µM (inactive)	4.48 µM (inactive)	2.37 µM (inactive)	24.5 µM (inactive)	4.66 µM (inactive)	12.6 µM (inactive)	11 µM (inactive)	2.21 µM (inactive)	11.8 µM (inactive)	35 µM (inactive)	18.8 µM (inactive)	9.59 µM (inactive)		8.3 µM (inactive)	8.79 µM (inactive)	7.24 µM (inactive)	19.4 µM (inactive)		1.87 µM (inactive)
COc1cc(-c2oc3c(OC)c(O)c(OC)c(O)c3c(=O)c2OC)cc(O)c1OC		42.9 µM (inactive)	28.4 µM (inactive)	39.4 µM (inactive)		> 100 µM (inactive)	47.5 µM (inactive)	38.3 µM (inactive)	23.8 µM (inactive)	19.6 µM (inactive)	17.6 µM (inactive)	65.9 µM (inactive)	15.8 µM (inactive)	11 µM (inactive)	23.9 µM (inactive)	30.8 µM (inactive)	29.6 µM (inactive)	39.2 µM (inactive)	32.8 µM (inactive)	67.8 µM (inactive)
